Experiments:
Assay type in all cases: functional
[1] = tested on: Mycolicibacterium smegmatis; experiment: Antituberculosis activity against linezolid-resistant Mycobacterium smegmatis without mutation in 23S rRNA
[2] = tested on: Mycobacterium tuberculosis; experiment: Antituberculosis activity against Mycobacterium tuberculosis by bactec 460 TB method
[3] = tested on: Mycobacterium tuberculosis; experiment: Antituberculosis activity against Mycobacterium tuberculosis by bactec MGIT 960 method

Measured: MIC

CC(=O)NC[C@H]1CN(c2ccc(N3CCOCC3)c(F)c2)C(=O)O1 [LINEZOLID]
4 µg/mL: all assays above

Reference: ChEMBL document CHEMBL1152471 (2008)
